Where two headings read alike, the source gives them in different places.
How the values were obtained:
[1] = long-term stability study, water uptake by TGA; format: physicochemical
Experimental: (§1) The physical and chemical stability study was performed on the compounds of Chemical Formula 2 and Chemical Formula 1 (for reference purposes). The long-term stability study was conducted at defined temperatures and relative humidity levels (25° C./60% relative humidity (RH) and 40° C./75% RH). At regular intervals, a solid sample was analyzed by XRPD, TGMS and HPLC.

[2] = PK parameters in plasma after single administration; format: in vivo, Wistar rats; conditions: for AUC(0-inf) / AUC(0-t) / Cmax / Tmax: Wistar, rat, plasma
[3] = test system: lung cancer cell line EBC-1; experiment: cancer cell proliferation inhibitory experiment (SRB); format: cell-based, human
Experimental: The following exemplary experimental protocol was performed to test the activity of the maleate salt compounds described herein.
An RPMI 1640 cell culture medium, fetal bovine serum (FBS) and trypsin were purchased from GIBCO Co., Ltd. (Grand Island, N.Y.), and sodium hydrogencarbonate, amphotericin B and gentamycin were used as signamic medical products. In addition, reagents such as sulforhodamine (SRB) B, Trisma Base, and trichloroacetic acid (TCA), which were reagents used in a cytotoxicity measurement experiment, were purchased from Sigma Chemical Co., Ltd. For MTS analysis, a Celltiter 96 Aqueous Non-Radioactive Cell Proliferation Assay product was purchased from Promega Co., Ltd. Further, a T-25 culture container used for cell culture, a 96-well plate and other disposable glass used for cell culture were obtained from Folkon (Lincoln Park, N.J.) products.
A drug used in the experiment was diluted as an experimental medium to a desired concentration in the test, and the final dimethylsulfoxide concentration was 0.5% or less.
Cancer cell lines used in the experiment were human-derived cancer cell lines, and a lung cancer cell line EBC-1. RPMI 1640 medium with 10% fetal bovine serum (FBS) was used and cultured in an incubator of 37° C. and 5% CO2 and subcultured once by 3 to 4 days.
Specifically, after the culture with the compound of the present disclosure was terminated, the culture solution was removed, and a cold TCA solution added to each well. The cells were left at 4° C. for 1 hour to be fixed. The TCA solution was removed, and the cells were dried at room temperature, incubated with a solution obtained by dissolving 0.4% SRB in a 1% acetic acid solution, left at room temperature for 30 minutes, and then stained. Extra SRB which was not bound to the cells was washed with a 1% acetic acid solution, and the SRB was eluted by adding a […] tris buffer solution (trisma base; unbuffered) of pH 10.3 to 10.5 to the stained cells.

[4] = long-term stability study, chemical purity by HPLC; format: physicochemical; conditions: for chemical degradation: up to 15 months, in words
Experimental: as §1
The results of the chemical purity determination for the compounds of Chemical Formula 1 and Chemical Formula 2 after 1-, 3- and 15-month exposure to 25° C./60% RH and 40° C./75% RH is presented in FIGS. 4 and 5.

[5] = thermodynamic solubility in formulation vehicles (phosphate buffer pH 7.4 with excipients); format: physicochemical; conditions: for solubility at 24 h: pH 7.4, aqueous with cosolvent or surfactant or cyclodextrin, thermodynamic from solid
Experimental: In view of developing a formulation suitable for parenteral administration, the quantitative solubility of Chemical Formula land the Chemical Formula 2 were determined in phosphate buffer pH 7.4, supplemented with solubility-enhancing excipients. The target concentration is 1-1.3 mg/mL.
Based on the qualitative solubility result determined for the PBS formulation vehicle containing Transcutol (Gattefossé, France) and TPGS (tocopherol polyethylene glycol succinate), the quantitative solubility of the compound of Chemical Formula 1 and the compound of Chemical Formula 2 was determined in those vehicles to assess the maximum solubility in those vehicles. The thermodynamic solubility was then determined in PBS buffer containing Transcutol (50% and 10%) and TPGS (20% and 10%) and also in the formulation vehicles containing PEG 400 (50%, with and without presence of 2% DMSO). Suspensions of the compound of Chemical Formula 1 and the compound of Chemical Formula 2 were prepared in the selected vehicles with a compound of Chemical Formula 1 concentration of about 3.5-5 mg/mL. After incubation for 24 hours at room temperature, the solids and liquid phases were separated. The concentration of API in solution was determined by HPLC analysis. The results can be found in FIG. 6.

[6] = pH-dependent solubility study; format: physicochemical
[7] = dynamic vapor sorption (DVS) analysis of hygroscopicity; format: physicochemical; conditions: humidity range below 80%, 25° C., in words
Experimental: Differential scanning calorimetry (DSC) analysis was performed to confirm the thermal stability of the novel salts provided in the present disclosure, and dynamic vapor sorption (DVS) analysis was performed to confirm the hygroscopicity.
The DVS analysis was performed to confirm the hygroscopicity of the salts by using a DVS-1 device, and was performed at a relative humidity of 40%, 95%, and 0% at 25° C. for 60 minutes.

[8] = PK parameters after bid (twice a day) administration; format: in vivo; conditions: for Cmax1 / Tmax1: after first daily dosing; for Cmax2 / Tmax2: after second daily dosing; for AUC / AUC(0-t): in vivo; for AUC: read-out: AUC(12-24 h)
From the text: FIG. 10 and Table 4 show the PK properties of the compound of Chemical Formula 2 administered twice a day (bid).
FIG. 11 and Table 5 show the PK properties of the compound of Chemical Formula 1 administered twice per day.

- water content compared to the free base form ([1]; 15 months, 40 degrees centigrade, 75% relative humidity (FIG. 4), in words): nearly four times lower
- water content lower than the free base form ([1]; about 15 months at 40° C. and 75% relative humidity): at least 22%
- water uptake ([1]; incubation for 15 months under the tested conditions, in words): no significant water uptake
- AUClast/Dose ([2]; 5 mg/kg IV): 1630 kg·nM·h/mg
- AUC∞/Dose ([2]; 5 mg/kg IV): 1655 kg·nM·h/mg
- Cl ([2]; 5 mg/kg IV): 0.000606 mg/h/nM/kg
- Vss ([2]; 5 mg/kg IV): 0.00271 mg/nM/kg
- Vz ([2]; 5 mg/kg IV): 0.00259 mg/nM/kg
- AUClast/Dose ([2]; 5 mg/kg PO): 347 kg·nM·h/mg
- AUC∞/Dose ([2]; 5 mg/kg PO): 355 kg·nM·h/mg
- F ([2]; 5 mg/kg PO): 21.4%
- AUClast/Dose ([2]; 20 mg/kg PO): 341 kg·nM·h/mg
- AUC∞/Dose ([2]; 20 mg/kg PO): 346 kg·nM·h/mg
- F ([2]; 20 mg/kg PO): 20.9%
- AUC(0-inf) ([2]; 5 mg/kg IV): 8.27 µM·h
- AUC(0-t) ([2]; 5 mg/kg IV): 8.13 µM·h
- AUC(0-inf) ([2]; 5 mg/kg PO): 1.77 µM·h
- AUC(0-t) ([2]; 5 mg/kg PO): 1.73 µM·h
- Cmax ([2]; 5 mg/kg PO): 246 nM
- Tmax ([2]; 5 mg/kg PO): 2 to 4 h
- AUC(0-inf) ([2]; 20 mg/kg PO): 6.93 µM·h
- AUC(0-t) ([2]; 20 mg/kg PO): 6.82 µM·h
- Cmax ([2]; 20 mg/kg PO): 676 nM
- Tmax ([2]; 20 mg/kg PO): 2 to 4 h
- GI50 ([3]; Homo sapiens, EBC-1, EBC-1 cell line): 14.2 nM
- chemical purity greater than the free base form ([4]; 15 months at 40° C. and 75% relative humidity): at least 4.7%
- solubility at 24 h ([5]; PBS formulation vehicle with 50% Transcutol, PBS vehicle containing 50% Transcutol, 24 hours at room temperature): > 3500 µg/mL
- solubility at 24 h ([5]; almost all vehicles, except for the vehicle with 10% Transcutol): > 1300 µg/mL
- less soluble than the free base form ([6]; gastric pH (FIG. 7)): more than 50%
- less soluble than the free base form ([6]; pH between 1 and 3): more than 75%
- less soluble than the free base form ([6]; pH of about 1.2 in 0.05M gastric media): more than 75%
- mass loss due to change in humidity (DVS) [7]: very low
- AUC(0-12 h)/Dose ([8]; 5 mg/kg IV (10 mg/kg/day)): 1060 kg·nM·h/mg
- AUC(12-24 h)/Dose ([8]; 5 mg/kg IV (10 mg/kg/day)): 1470 kg·nM·h/mg
- AUClast/Dose ([8]; 5 mg/kg IV (10 mg/kg/day)): 1298 kg·nM·h/mg
- Cl ([8]; 5 mg/kg IV (10 mg/kg/day)): 0.00086 mg/h/nM/kg
- Vss ([8]; 5 mg/kg IV (10 mg/kg/day)): 0.00782 mg/nM/kg
- Vz ([8]; 5 mg/kg IV (10 mg/kg/day)): 0.00283 mg/nM/kg
- AUC(0-12 h)/Dose ([8]; 5 mg/kg PO (10 mg/kg/day)): 685 kg·nM·h/mg
- AUC(12-24 h)/Dose ([8]; 5 mg/kg PO (10 mg/kg/day)): 798 kg·nM·h/mg
- AUClast/Dose ([8]; 5 mg/kg PO (10 mg/kg/day)): 742 kg·nM·h/mg
- F ([8]; 5 mg/kg PO (10 mg/kg/day)): 57.2%
- Cmax1 ([8]; 5 mg/kg PO (10 mg/kg/day)): 611 nM
- Tmax1 ([8]; 5 mg/kg PO (10 mg/kg/day)): 0.5-3$ h
- Cmax2 ([8]; 5 mg/kg PO (10 mg/kg/day)): 802 nM
- Tmax2 ([8]; 5 mg/kg PO (10 mg/kg/day)): 12.5-13$ h
- AUC(0-12 h)/Dose ([8]; 20 mg/kg PO (40 mg/kg/day)): 612 kg·nM·h/mg
- AUC(12-24 h)/Dose ([8]; 20 mg/kg PO (40 mg/kg/day)): 601 kg·nM·h/mg
- AUClast/Dose ([8]; 20 mg/kg PO (40 mg/kg/day)): 607 kg·nM·h/mg
- F ([8]; 20 mg/kg PO (40 mg/kg/day)): 46.8%
- Cmax1 ([8]; 20 mg/kg PO (40 mg/kg/day)): 1600 nM
- Tmax1 ([8]; 20 mg/kg PO (40 mg/kg/day)): 2-3$ h
- Cmax2 ([8]; 20 mg/kg PO (40 mg/kg/day)): 2120 nM
- Tmax2 ([8]; 20 mg/kg PO (40 mg/kg/day)): 12.5-14$ h
- AUC ([8]; 5 mg/kg IV (10 mg/kg/day)): 7.34 µM·h
- AUC ([8]; 5 mg/kg PO (10 mg/kg/day)): 3.99 µM·h
- AUC ([8]; 20 mg/kg PO (40 mg/kg/day)): 12 µM·h
- AUC(0-t) ([8]; iv, 5 mg/kg, 5 mg/kg IV (10 mg/kg/day), read-out: AUC(0-12 h)): 5.32 µM·h
- AUC(0-t) ([8]; iv, 5 mg/kg, 5 mg/kg IV (10 mg/kg/day), read-out: AUClast): 13 µM·h
- AUC(0-t) ([8]; po, 5 mg/kg, 5 mg/kg PO (10 mg/kg/day), read-out: AUC(0-12 h)): 3.43 µM·h
- AUC(0-t) ([8]; po, 5 mg/kg, 5 mg/kg PO (10 mg/kg/day), read-out: AUClast): 7.42 µM·h
- AUC(0-t) ([8]; po, 20 mg/kg, 20 mg/kg PO (40 mg/kg/day), read-out: AUC(0-12 h)): 12.2 µM·h
- AUC(0-t) ([8]; po, 20 mg/kg, 20 mg/kg PO (40 mg/kg/day), read-out: AUClast): 24.3 µM·h
SMILES: CN1CCN(Cc2ccc(-c3cnc(N4CCOC(Cn5nnc6ncc(-c7cnn(C)c7)nc65)C4)nc3)cc2)CC1.O=C(O)/C=C\C(=O)O (stereo not shown) [Chemical Formula 2]
- activity in inhibiting cancer cell growth compared to the compound of Chemical Formula 1 ([3]; in words): improved activity in inhibiting cancer cell growth
- chemical degradation ([4]; 25° C./60% RH): did not show significant chemical degradation
- chemical degradation ([4]; 40° C./75% RH): remained chemically stable up to 15 months
- solubility compared with Chemical Formula 1 ([5]; all the formulation vehicles tested, in words): higher than that of the compound of Chemical Formula 1
